The text below walks through data of paper PMC9020709, “Hepcidin is potential regulator for renin activity” (PLoS ONE, 2022).

Entries after “also recorded” stand apart in the source; their conditions may differ. Where no end group is shown, it is not given here.

For one experiment, the system named is renin. As to the kind of experiment: Renin inhibitor screening kit (fluorometric FRET, DABCYL-EDANS). The format is biochemical. The note with it: for Mean inhibitory effect on renin activity: 5 min pre-incubation at 37°C, read every 60 s for 60 min at 37°C, ex/em 328/552 nm; for Renin inhibition (in words): 10, 100 and 500 nM, in vitro, 37°C. The method, then:
(§1) Activity measurements for all three enzymes (renin, ACE1 and ACE2) were carried out using commercial inhibition kits following manufacturer’s instructions. Screening kits were purchased from Biovision (Biovision, Inc. San Francisco, CA). Candidate inhibitors used were human hepcidin-25/LEAP-1 (disulfide bonds between Cys7–Cys23, Cys10–Cys13, Cys11–Cys19, and Cys14–Cys22, purity assessed by HPLC ≥ 98.0%) purchased from Peptides International (Peptides International Inc, Louisville, KY) as well as N-terminal part of hepcidin, Asp-Thr-His-Phe-Pro (hepcidin-5) synthetized by Proteogenix (Schiltigheim, France).
All kits included the enzyme, substrate, and enzyme inhibitor as negative control. The fluorophore labelled substate was cleaved by the enzyme. The used fluorophores were a synthetic o-aminobenzoyl peptide for ACE1, 7-Methoxycoumarin-4-acetic acid (MCA) for ACE2 and 5-((2-Aminoethyl)amino)naphthalene-1-sulfonic acid (EDANS) for renin. DABCYL-EDANS is well-known FRET pair where fluorescence is quenched when peptide is uncleaved. Fluorescence signal is increased after peptide is cleaved and EDANS molecule is free in the solution. The fluorescence intensity was recorded and calculated as follows. According to renin inhibitor screening kit instructions hepcidin-25 and hepcidin-5 were first pipetted to a black ForteBio’s 96-well plate. Renin enzyme solution was added and mixed. Both candidate inhibitors were measured with final sample concentrations of 10 nM, 100 nM and 500 nM. The plate was incubated for 5 min at 37°C. Finally, substrate solution was added into each well. Fluorescence measurement was performed using Perkin Elmer UV/VIS Envision multimode plate reader. Excitation and emission wavelengths were 328 and 552 nm, respectively. Fluorescence was recorded every 60 s for 60 min at 37°C. Inhibitory activity of renin was calculated as follows: Renininhibitoryactivity(%)=1−Activitywithsample/Activitywithoutsamplex100 where “Activity with sample” is the slope calculated from the linear range of the fluorescence plot at the presence of candidate inhibitor. Activity without the sample represents the slope without any sample in the well.
Mean enzyme inhibitory activities with the standard error of means were calculated at different concentrations. Data analysis was performed using Microsoft Office 365 ProPlus Excel version 1902 for Windows. The hepcidin–renin binding data was treated as follows: Background was subtracted, and the data was normalised to allow comparison between experiments. The normalised data was analysed with […] regression analysis in GraphPad Prism 5.02 (GraphPad Software, La Jolla, CA) assuming one-site specific binding.

For experiment [1], the system named is angiotensin-converting enzyme 1 (ACE1). Kind of experiment: ACE1 inhibition screening kit (fluorometric). Type of experiment: biochemical. The procedure: as §1
(§2) All kits included the enzyme, substrate, and enzyme inhibitor as negative control. […] DABCYL-EDANS is well-known FRET pair where fluorescence is quenched when peptide is uncleaved. Fluorescence signal is increased after peptide is cleaved and EDANS molecule is free in the solution. The fluorescence intensity was recorded and calculated as follows. […] Both candidate inhibitors were measured with final sample concentrations of 10 nM, 100 nM and 500 nM. […] Fluorescence measurement was performed using Perkin Elmer UV/VIS Envision multimode plate reader. […] Fluorescence was recorded every 60 s for 60 min at 37°C. […]
Briefly, ACE1 enzyme solution was added to a 96-well plate and each diluted candidate enzyme inhibitors were added. […] Fluorescence was recorded every 60s for 100 min at 37°C. […]

The next experiment deals with human renin. As to the kind of experiment: Bio-layer interferometry, hepcidin-renin binding. The note with it: biotinylated renin on sensors; analyte 12.5-100 μM; ForteBio Octet RED384, PBS pH 7.2 and 150 mM NaCl, 27°C; association 0–1200 s, dissociation 1200–2000 s. The method, then:
Human prorenin coding gene was ordered from GeneArt in pcDNA3.1(+) as fusion protein with a C-terminal His-tag. The pcDNA3.1 vector confers ampicillin resistance. Plasmid was dissolved in 50 μl of TE-EF and the amount of 100 ng was transferred into Escherichia coli TOP10 cells (Invitrogen, UK) with the heat shock method (30 s). In the next day colonies were picked for midiprep isolation. A single colony was picked and cultured in 5 ml media supplemented with 100 μg/ml ampicillin and 5 mM glucose for 7 hours after which it is moved to 200 ml LB media, which included ampicillin and glucose, and grown overnight at 37°C 220 rpm. The plasmid DNA was isolated using Nucleobond Xtra Midi Plus EF Kit (Macherey-Nagel, #7404220). Plasmid DNA produced was endotoxin-free. Human prorenin was then produced in ExpiCHO cells.
Cell pellet was re-suspended in 20 ml buffer (50 mM Hepes, 200 mM NaCl, 10% Glycerol, 1 mM TCEP, pH 7.5) and protease inhibitor tablet was added. Cell lysis was made with sonicator (1 min, 50%, 2 sec on/5 sec off cycle). […]
Biotinylation of renin was done using NHS-PEG4-Biotin (ThermoFisher Scientific) at 1:1 molar ratio. […] Concentration of biotinylated protein was measured using NanoDrop™ One Uv-Vis spectrophotometer (ThermoFisher Scientific). […]
(§3) Mean enzyme inhibitory activities with the standard error of means were calculated at different concentrations. […]
In general terms: BLI is a label-free optical method that tracks binding on a fibre tip over time.

Experiment [2] relates to angiotensin-converting enzyme 2 (ACE2). As to the kind of experiment: ACE2 inhibition screening kit (fluorometric). Type of experiment: biochemical. The note with it: 10, 100 and 500 nM; 15 min pre-incubation at room temperature, read every 60 s for 60 min, ex/em 320/420 nm; n = 3-6-4 (hepcidin-25), 3-6-3 (hepcidin-5). The method, then:
as §1
as §2, with “control. The fluorophore labelled substate was cleaved by the enzyme.” for “control.”
as §3

For the substance “Asp-Thr-His-Phe-Pro [hepcidin-5, N-terminal part of hepcidin, synthetized by Proteogenix]”, the “Mean inhibitory effect on renin activity” value in the experiment on renin (10 nM peptide, n = 2) was 50.1%; in the experiment on renin (100 nM peptide, n = 3) it was 50.0%; in the experiment on renin (500 nM peptide, n = 3), 58.6%. Besides, the “Renin inhibition (in words)” value with renin is recorded as “stronger effect on renin than hepcidin-25”. Besides, the “ACE1 inhibitory activity (strongest)” value in experiment [1] (500 nM, 15 min pre-incubation at 37°C, read every 60 s for 100 min at 37°C, ex/em 330/430 nm, n = 6) was 34.8%.

For “hepcidin-20: control peptide, purchased from Pepnet; truncated isoform without N-terminal hepcidin-5 (ICIFCCGCCHRSKCGMCCKT; ends and bridges not checked; cysteine pairing not given here; UniProt P81172 65-84, looked up)”, the “Binding to renin (association and dissociation curves, in words)” value in the experiment with human renin is “cannot bind to renin”.

Consider “hepcidin-25: human hepcidin-25/LEAP-1 (disulfide bonds between Cys7–Cys23, Cys10–Cys13, Cys11–Cys19, and Cys14–Cys22), purchased from Peptides International”, for which the “Mean inhibitory effect on renin activity” value was found to be 20.4% in the experiment on renin (10 nM peptide, n = 2); 29.2% in the experiment on renin (100 nM peptide, n = 3); 38.3% in the experiment with renin (500 nM peptide, n = 3). Moreover, the “Renin inhibition (in words)” value in the experiment with renin is “has an inhibitory effect on renin in vitro; also recorded: can bind to renin enzyme and inhibit its activity in vitro; also recorded: can bind to the active site of renin and inhibit its activity in vitro”. Moreover, the “ACE1 inhibition (in words)” value in experiment [1] (10, 100 and 500 nM, 37°C, n = 5-6-1 for hepcidin-25) is “not inhibited remarkably; also recorded: low inhibitory activity”. The “ACE2 inhibition (in words)” value in experiment [2] is listed as “not inhibited remarkably”. Further, the “Binding to renin (association and dissociation curves, in words)” value in the experiment with human renin was “concentration dependent”.
